ChEMBL document CHEMBL3885881, “DrugMatrix”

Organism: Rattus norvegicus
Assay: DrugMatrix - Regimen: Daily Repeat
Type: toxicity, organism-based, Sprague-Dawley
Design: regimen Daily Repeat, gender Male, age 6-8 weeks
Details: in vivo, po, route oral GAVAGE, vehicle .5 % CMC; for ABSOLUTE BASOPHIL / ABSOLUTE EOSINOPHIL / ABSOLUTE LYMPHOCYTE / ABSOLUTE MONOCYTE / ABSOLUTE SEGMENTED NEUTROPHIL / BASOPHIL / EOSINOPHIL / ERYTHROCYTE COUNT / HEMATOCRIT / HEMOGLOBIN / LEUKOCYTE COUNT / LYMPHOCYTE / MEAN CORPUSCULAR HEMOGLOBIN / MEAN CORPUSCULAR HEMOGLOBIN CONCENTRATION / MEAN CORPUSCULAR VOLUME / MONOCYTE / NEUTROPHIL / NUCLEATED RED BLOOD CELLS / PLATELET COUNT: tissue Blood; for ALANINE AMINOTRANSFERASE / ALBUMIN / ALKALINE PHOSPHATASE / ASPARTATE AMINOTRANSFERASE / BLOOD UREA NITROGEN / CARBON DIOXIDE / CHLORIDE / CHOLESTEROL / CREATINE PHOSPHOKINASE / CREATININE / GLUCOSE / LACTATE DEHYDROGENASE / LIPASE / PHOSPHORUS / POTASSIUM / SODIUM / TOTAL BILIRUBIN / TOTAL PROTEIN / URIC ACID: tissue Plasma
[1] = 20 mg/kg, 72 h, dose level Low, time 3 day
[2] = 20 mg/kg, 120 h, dose level Low, time 5 day
[3] = 201 mg/kg, 72 h, dose level High, time 3 day
[4] = 201 mg/kg, 120 h, dose level High, time 5 day

CCCCCCNC(=O)n1cc(F)c(=O)[nH]c1=O [CARMOFUR] was tested, and the “ABSOLUTE BASOPHIL” value [1] was 0 CELLS/uL, the “ABSOLUTE EOSINOPHIL” value [1] was 56 CELLS/uL and the “ABSOLUTE LYMPHOCYTE” value [1] was 15579 CELLS/uL. The “ABSOLUTE MONOCYTE” value [1] was 284.33 CELLS/uL, the “ABSOLUTE SEGMENTED NEUTROPHIL” value [1] was 1314 CELLS/uL and the BASOPHIL [1] was 0%. The EOSINOPHIL [1] was 0.33%, the “ERYTHROCYTE COUNT” value [1] was 5.63 x10E6/uL and the HEMATOCRIT [1] was 35.8%. The HEMOGLOBIN [1] was 14.23 G/DL, the “LEUKOCYTE COUNT” value [1] was 17.23 x10E3/uL and the LYMPHOCYTE [1] was 90.33%. For the same compound, the “MEAN CORPUSCULAR HEMOGLOBIN” value [1] was 25.27 pg, the “MEAN CORPUSCULAR HEMOGLOBIN CONCENTRATION” value [1] was 39.8 G/DL and the “MEAN CORPUSCULAR VOLUME” value [1] was 63.6 fL. The MONOCYTE [1] was 1.67%, the NEUTROPHIL [1] was 7.67% and the “NUCLEATED RED BLOOD CELLS” value [1] was 0 /100WBC. The “PLATELET COUNT” value [1] was 1328 x10E3/uL, the “ALANINE AMINOTRANSFERASE” value [1] was 51 u/L and the ALBUMIN [1] was 4.43 G/DL. For the same compound, the “ALKALINE PHOSPHATASE” value [1] was 409 u/L, the “ASPARTATE AMINOTRANSFERASE” value [1] was 85.67 u/L and the “BLOOD UREA NITROGEN” value [1] was 13 mg/dL. For the same compound, the “CARBON DIOXIDE” value [1] was 22.67 mmol/L, the CHLORIDE [1] was 103.67 MEQ/L and the CHOLESTEROL [1] was 70.67 mg/dL. The “CREATINE PHOSPHOKINASE” value [1] was 301.67 u/L, the CREATININE [1] was 0.18 mg/dL and the GLUCOSE [1] was 161 mg/dL. For the same compound, the “LACTATE DEHYDROGENASE” value [1] was 305.33 u/L, the LIPASE [1] was 9 u/L and the PHOSPHORUS [1] was 12.3 mg/dL. The POTASSIUM [1] was 6.94 MEQ/L, the SODIUM [1] was 146.4 MEQ/L and the “TOTAL BILIRUBIN” value [1] was 0.17 mg/dL. The “TOTAL PROTEIN” value [1] was 6.13 G/DL, the “URIC ACID” value [1] was 1.63 mg/dL and the “ABSOLUTE BASOPHIL” value [2] was 0 CELLS/uL. For the same compound, the “ABSOLUTE EOSINOPHIL” value [2] was 222.67 CELLS/uL, the “ABSOLUTE LYMPHOCYTE” value [2] was 15078.33 CELLS/uL and the “ABSOLUTE MONOCYTE” value [2] was 213.33 CELLS/uL. For the same compound, the “ABSOLUTE SEGMENTED NEUTROPHIL” value [2] was 719 CELLS/uL, the BASOPHIL [2] was 0% and the EOSINOPHIL [2] was 1.33%. The “ERYTHROCYTE COUNT” value [2] was 5.39 x10E6/uL, the HEMATOCRIT [2] was 34.47% and the HEMOGLOBIN [2] was 13.83 G/DL. For the same compound, the “LEUKOCYTE COUNT” value [2] was 16.23 x10E3/uL, the LYMPHOCYTE [2] was 93% and the “MEAN CORPUSCULAR HEMOGLOBIN” value [2] was 25.67 pg. For the same compound, the “MEAN CORPUSCULAR HEMOGLOBIN CONCENTRATION” value [2] was 40.1 G/DL, the “MEAN CORPUSCULAR VOLUME” value [2] was 64 fL and the MONOCYTE [2] was 1.33%. For the same compound, the NEUTROPHIL [2] was 4.33%, the “NUCLEATED RED BLOOD CELLS” value [2] was 0 /100WBC and the “PLATELET COUNT” value [2] was 1330.33 x10E3/uL. For the same compound, the “ALANINE AMINOTRANSFERASE” value [2] was 47.67 u/L, the ALBUMIN [2] was 4.3 G/DL and the “ALKALINE PHOSPHATASE” value [2] was 311 u/L. The “ASPARTATE AMINOTRANSFERASE” value [2] was 74.33 u/L, the “BLOOD UREA NITROGEN” value [2] was 14 mg/dL and the “CARBON DIOXIDE” value [2] was 23 mmol/L. For the same compound, the CHLORIDE [2] was 103.33 MEQ/L, the CHOLESTEROL [2] was 73.33 mg/dL and the “CREATINE PHOSPHOKINASE” value [2] was 245.33 u/L. For the same compound, the CREATININE [2] was 0.12 mg/dL, the GLUCOSE [2] was 149 mg/dL and the “LACTATE DEHYDROGENASE” value [2] was 124.33 u/L. It also gave an LIPASE [2] of 8 u/L, a PHOSPHORUS [2] of 12.67 mg/dL and a POTASSIUM [2] of 6.45 MEQ/L. For the same compound, the SODIUM [2] was 145.27 MEQ/L, the “TOTAL BILIRUBIN” value [2] was 0.23 mg/dL and the “TOTAL PROTEIN” value [2] was 6.07 G/DL. The “URIC ACID” value [2] was 1.57 mg/dL, the “ABSOLUTE BASOPHIL” value [3] was 0 CELLS/uL and the “ABSOLUTE EOSINOPHIL” value [3] was 0 CELLS/uL. For the same compound, the “ABSOLUTE LYMPHOCYTE” value [3] was 13152.33 CELLS/uL, the “ABSOLUTE MONOCYTE” value [3] was 146.67 CELLS/uL and the “ABSOLUTE SEGMENTED NEUTROPHIL” value [3] was 901 CELLS/uL. The BASOPHIL [3] was 0%, the EOSINOPHIL [3] was 0% and the “ERYTHROCYTE COUNT” value [3] was 5.67 x10E6/uL. The HEMATOCRIT [3] was 35.7%, the HEMOGLOBIN [3] was 14.47 G/DL and the “LEUKOCYTE COUNT” value [3] was 14.2 x10E3/uL. For the same compound, the LYMPHOCYTE [3] was 92.67%, the “MEAN CORPUSCULAR HEMOGLOBIN” value [3] was 25.5 pg and the “MEAN CORPUSCULAR HEMOGLOBIN CONCENTRATION” value [3] was 40.53 G/DL. The “MEAN CORPUSCULAR VOLUME” value [3] was 62.97 fL, the MONOCYTE [3] was 1% and the NEUTROPHIL [3] was 6.33%. The “NUCLEATED RED BLOOD CELLS” value [3] was 0 /100WBC, the “PLATELET COUNT” value [3] was 1275.33 x10E3/uL and the “ALANINE AMINOTRANSFERASE” value [3] was 52.67 u/L. The ALBUMIN [3] was 4.37 G/DL, the “ALKALINE PHOSPHATASE” value [3] was 367 u/L and the “ASPARTATE AMINOTRANSFERASE” value [3] was 69 u/L. For the same compound, the “BLOOD UREA NITROGEN” value [3] was 23.33 mg/dL, the “CARBON DIOXIDE” value [3] was 21 mmol/L and the CHLORIDE [3] was 102.33 MEQ/L. For the same compound, the CHOLESTEROL [3] was 81 mg/dL, the “CREATINE PHOSPHOKINASE” value [3] was 192.67 u/L and the CREATININE [3] was 0.27 mg/dL. For the same compound, the GLUCOSE [3] was 160 mg/dL, the “LACTATE DEHYDROGENASE” value [3] was 198.33 u/L and the LIPASE [3] was 9.33 u/L. The PHOSPHORUS [3] was 12 mg/dL, the POTASSIUM [3] was 6.3 MEQ/L and the SODIUM [3] was 145.27 MEQ/L. For the same compound, the “TOTAL BILIRUBIN” value [3] was 0.17 mg/dL, the “TOTAL PROTEIN” value [3] was 6.33 G/DL and the “URIC ACID” value [3] was 1.77 mg/dL. The “ABSOLUTE BASOPHIL” value [4] was 0 CELLS/uL, the “ABSOLUTE EOSINOPHIL” value [4] was 0 CELLS/uL and the “ABSOLUTE LYMPHOCYTE” value [4] was 4570 CELLS/uL. The “ABSOLUTE MONOCYTE” value [4] was 201.5 CELLS/uL, the “ABSOLUTE SEGMENTED NEUTROPHIL” value [4] was 2778.5 CELLS/uL and the BASOPHIL [4] was 0%. For the same compound, the EOSINOPHIL [4] was 0%, the “ERYTHROCYTE COUNT” value [4] was 8.62 x10E6/uL and the HEMATOCRIT [4] was 52.2%. The HEMOGLOBIN [4] was 20.65 G/DL, the “LEUKOCYTE COUNT” value [4] was 7.55 x10E3/uL and the LYMPHOCYTE [4] was 62.5%. The “MEAN CORPUSCULAR HEMOGLOBIN” value [4] was 24 pg, the “MEAN CORPUSCULAR HEMOGLOBIN CONCENTRATION” value [4] was 39.6 G/DL and the “MEAN CORPUSCULAR VOLUME” value [4] was 60.55 fL. The MONOCYTE [4] was 2.5%, the NEUTROPHIL [4] was 35% and the “NUCLEATED RED BLOOD CELLS” value [4] was 0 /100WBC. For the same compound, the “PLATELET COUNT” value [4] was 1522.5 x10E3/uL, the “ALANINE AMINOTRANSFERASE” value [4] was 43.5 u/L and the ALBUMIN [4] was 5.05 G/DL. The “ALKALINE PHOSPHATASE” value [4] was 216 u/L, the “ASPARTATE AMINOTRANSFERASE” value [4] was 414 u/L and the “BLOOD UREA NITROGEN” value [4] was 219.5 mg/dL. For the same compound, the “CARBON DIOXIDE” value [4] was 19 mmol/L, the CHLORIDE [4] was 115 MEQ/L and the CHOLESTEROL [4] was 78.5 mg/dL. For the same compound, the “CREATINE PHOSPHOKINASE” value [4] was 2230 u/L, the CREATININE [4] was 0.29 mg/dL and the GLUCOSE [4] was 164 mg/dL. The “LACTATE DEHYDROGENASE” value [4] was 1956 u/L, the LIPASE [4] was 24.5 u/L and the PHOSPHORUS [4] was 20.35 mg/dL. For the same compound, the POTASSIUM [4] was 5.82 MEQ/L, the SODIUM [4] was 154.1 MEQ/L and the “TOTAL BILIRUBIN” value [4] was 0.6 mg/dL. For the same compound, the “TOTAL PROTEIN” value [4] was 6.6 G/DL and the “URIC ACID” value [4] was 4.25 mg/dL.
